Results: patent US20220002279A1, “NOVEL IMIDAZOLE DERIVATIVE” (priority 2018, published 2022)
Converted amounts (≈) assume the structure as drawn.

Legend:
Assay in all cases: Antimicrobial activity, MIC by broth microdilution
Assay type in all cases: cell-based
[1] = system: Pseudomonas aeruginosa strain ATCC27853; conditions: ATCC27853, 18 h, cation-adjusted Mueller-Hinton broth, about 5×10^5 CFU/mL, 35° C., about 18 hours, read-out: MIC Pseudomonas aeruginosa ATCC27853
From the text: (§1) Test Example 4 Evaluation of the Antimicrobial Activity
(§2) For minimum inhibitory concentration (MIC) measurement, the following broth microdilution method was applied as adapted from the standard procedure recommended by the CLSI (Clinical and Laboratory Standards Institute).
(§3) The bacteria used were Pseudomonas aeruginosa strain ATCC27853, Escherichia coli strain ATCC25922, and Klebsiella pneumoniae strain ATCC13883. After culture overnight on a heart infusion agar medium, the cells of a test bacterium were scraped off, and a bacterial solution suspended to have a turbidity of level 0.5 on the McFarland scale was diluted and used as an inoculum solution. The inoculum solution was inoculated in a cation-adjusted Mueller-Hinton broth medium containing a test compound so that the final inoculation concentration was about 5×10^5 CFU/mL, and cultured at 35° C. for about 18 hours. A minimum drug concentration at which no cell growth was visible to the naked eye was designated as MIC. […] In the table, ND represents the case where suppression of the cell growth in a drug concentration-dependent manner was not observed (Not Determined), and NT represents that no test was conducted (Not Tested).

[2] = system: Klebsiella pneumoniae strain ATCC13883; conditions: ATCC13883, cation-adjusted Mueller-Hinton broth, about 5×10^5 CFU/mL, 35° C., about 18 hours, read-out: MIC Klebsiella pneumoniae ATCC13883
From the text: as §1, §2, §3

[3] = system: Escherichia coli strain ATCC25922; conditions: ATCC25922, 18 h, cation-adjusted Mueller-Hinton broth, about 5×10^5 CFU/mL, 35° C., about 18 hours, read-out: MIC Escherichia coli ATCC25922
From the text: as §1, §2, §3

| SMILES | MIC [1] [mg/L] | MIC [2] [mg/L] | MIC [3] [mg/L] |
| --- | --- | --- | --- |
| C[C@H](O)c1nccn1Cc1cc(-c2ccc(C#C[C@H]3C[C@H](N)C3)cc2)on1 [Compound 23, (1S)-1-{1-[(5-(4-[(trans-3-aminocyclobutyl)ethynyl]phenyl}-1,2-oxazol-3-yl)methyl]-1H-imidazol-2-yl}ethan-1-ol] | 16 (≈ 44.1 µM) | 8 (≈ 22.1 µM) | 4 (≈ 11 µM) |
| C[C@H](O)c1nccn1Cc1cc(-c2ccc(C#CCN)cc2)on1 [Compound 30, (1S)-1-[l-({5-[4-(3-aminoprop-1-yn-1-yl)phenyl]-1,2-oxazol-3-yl}methyl)-1H-imidazol-2-yl]ethan-1-ol] | 64 (≈ 199 µM) | > 128 | 64 (≈ 199 µM) |
| CNC[C@H](c1cc(-c2ccc(C#C[C@@H]3[C@H]4CN(CCO)C[C@@H]34)cc2)on1)n1ccnc1[C@H](C)O [Compound 38, (1S)-1-{1-[(1R)-1-[5-(4-{[(1R,5S,6s)-3-(2-Hydroxyethyl)-3-azabicyclo[3.1.0]hexan-6-yl]ethynyl}phenyl)-1,2-oxazol-3-yl]-2-(methylamino)ethyl]-1H-imidazol-2-yl}ethan-1-ol] | 4 (≈ 8.67 µM) |  | 2 (≈ 4.33 µM) |
| C[C@H](O)c1nccn1Cc1cc(-c2ccc(C#C[C@H]3C[C@H](O)C3)cc2)on1 [Compound 54, trans-3-({4-[3-({2-[(1S)-1-Hydroxyethyl]-1H-imidazol-1-yl}methyl)-1,2-oxazol-5-yl]phenyl}ethynyl)cyclobutan-1-ol] | 16 (≈ 44 µM) | 0.25 (≈ 0.688 µM) | 0.12 (≈ 0.33 µM) |
| C[C@H](O)c1nccn1[C@H](CN)c1cc(-c2ccc(C#CC3C4COCC34)cc2)on1 (stereo partly drawn) [Compound 58, (1S)-1-{1-[(1R)-2-amino-1-(5-{4-[(3-oxabicyclo[3.1.0]hexan-6-yl)ethynyl]phenyl}-1,2-oxazol-3-yl)ethyl]-1H-imidazol-2-yl} ethan-1-ol] | 8 (≈ 19.8 µM) |  |  |
| C[C@H](O)c1nccn1[C@H](CN)c1cc(-c2ccc(C#CC3CC3)cc2)on1 [Compound 60, (1S)-1-{1-[(1R)-2-amino-1-(5-[4-(cyclopropylethynyl)phenyl]-1,2-oxazol-3-yl}ethyl]-1H-imidazol-2-yl}ethan-1-ol] | 8 (≈ 22.1 µM) | 0.25 (≈ 0.69 µM) | 0.25 (≈ 0.69 µM) |
| C[C@H](O)c1nccn1Cc1cc(-c2ccc(C#C[C@@H]3[C@H]4CN(CCCC(=O)O)C[C@@H]34)cc2)on1 [Compound 67, 4-[(1R,5S,6s)-6-({4-[3-({2-[(1S)-1-Hydroxyethyl]-1H-imidazol-1-yl}methyl)-1,2-oxazol-5-yl]phenyl}ethynyl)-3-azabicyclo[3.1.0]hexan-3-yl]butanoic acid] | 8 (≈ 17.4 µM) | 4 (≈ 8.69 µM) | 2 (≈ 4.34 µM) |
| C[C@H](O)c1nccn1[C@H](CN)c1cc(-c2ccc(C#CC3CCOC3)cc2)on1 (stereo partly drawn) [Compound 75, (1S)-1-{1-[(1R)-2-amino-1-(5-{4-[(oxolan-3-yl)ethynyl]phenyl}-1,2-oxazol-3-yl)ethyl]-1H-imidazol-2-yl} ethan-1-ol] | 64 (≈ 163 µM) | 2 (≈ 5.1 µM) | 0.25 (≈ 0.637 µM) |
| C[C@H](O)c1nccn1Cc1cc(-c2ccc(C#C[C@H]3C[C@@H](O)C3)cc2)on1 [Compound 88, cis-3-({4-[3-((2-[(1S)-1-Hydroxyethyl]-1H-imidazol-1-yl}methyl)-1,2-oxazol-5-yl]phenyl}ethynyl)cyclobutan-1-ol] | 16 (≈ 44 µM) | 0.25 (≈ 0.688 µM) | 0.12 (≈ 0.33 µM) |
| C[C@H](O)c1nccn1[C@H](CN)c1cc(-c2ccc(C#C[C@H]3C[C@@](O)(CO)C3)cc2)on1 [Compound 89, trans-3-[(4-(3-[(1R)-2-Amino-1-{2-[(1S)-1-hydroxyethyl]-1H-imidazol-1-yl}ethyl]-1,2-oxazol-5-yl}phenyl)ethynyl]-1-(hydroxymethyl)cyclobutan-1-ol] | 4 (≈ 9.47 µM) | 8 (≈ 18.9 µM) | 2 (≈ 4.73 µM) |
| C[C@H](O)c1nccn1[C@H](CN)c1cc(-c2ccc(C#C[C@H]3C[C@](O)(CO)C3)cc2)on1 [Compound 90, cis-3-[(4-{3-[(1R)-2-amino-1-{2-[(1S)-1-hydroxyethyl]-1H-imidazol-1-yl}ethyl]-1,2-oxazol-5-yl}phenyl)ethynyl]-1-(hydroxymethyl)cyclobutan-1-ol] | 4 (≈ 9.47 µM) | 8 (≈ 18.9 µM) | 4 (≈ 9.47 µM) |
| CC(=O)N1C[C@@H]2[C@@H](C#Cc3ccc(-c4cc([C@@H](CN)n5ccnc5[C@H](C)O)no4)cc3)[C@@H]2C1 [Compound 91, 1-{(1R,5S,6s)-6-[(4-{3-[(1R)-2-Amino-1-{2-[(1S)-1-hydroxyethyl]-1H-imidazol-1-yl}ethyl]-1,2-oxazol-5-yl}phenyl)ethynyl]-3-azabicyclo[3.1.0]hexan-3-yl}ethan-1-one] | 32 (≈ 71.8 µM) | 8 (≈ 18 µM) |  |
| C[C@H](O)c1nccn1[C@H](CN)c1cc(-c2ccc(C#C[C@H]3C[C@H](O)C3)cc2)no1 [Compound 100, trans-3-[(4-{5-[(1R)-2-amino-1-{2-[(1S)-1-hydroxyethyl]-1H-imidazol-1-yl}ethyl]-1,2-oxazol-3-yl}phenyl)ethynyl]cyclobutan-1-ol] |  | 4 (≈ 10.2 µM) |  |
| COCCN1C[C@@H]2[C@@H](C#Cc3ccc(-c4cc([C@@H](CN)n5ccnc5[C@H](C)O)no4)cc3)[C@@H]2C1 [Compound 101, (1S)-1-(1-{(1R)-2-Amino-1-[5-(4-{[(1R,5S,6s)-3-(2-methoxyethyl)-3-azabicyclo[3.1.0]hexan-6-yl]ethynyl}phenyl)-1,2-oxazol-3-yl]ethyl}-1H-imidazol-2-yl)ethan-1-ol] | 2 (≈ 4.33 µM) | 1 (≈ 2.17 µM) | 0.5 (≈ 1.08 µM) |
| C[C@H](O)c1nccn1[C@H](CN)c1cc(-c2ccc(C#C[C@H]3C[C@H](NC=O)C3)cc2)on1 [Compound 106, N-{trans-3-[(4-{3-[(1R)-2-amino-1-(2-[(1S)-1-hydroxyethyl]-1H-imidazol-1-yl}ethyl]-1,2-oxazol-5-yl}phenyl)ethynyl]cyclobutyl}formamide] | 8 (≈ 19.1 µM) | 4 (≈ 9.54 µM) | 2 (≈ 4.77 µM) |
| C[C@H](O)c1nccn1[C@H](CN)c1cc(-c2ccc(C#C[C@@H]3[C@H]4CN(CCCC(=O)O)C[C@@H]34)cc2)on1 [Compound 113, 4-{(1R,5S,6s)-6-[(4-{3-[(1R)-2-amino-1-{2-[(1S)-1-hydroxyethyl]-1H-imidazol-1-yl}ethyl]-1,2-oxazol-5-yl}phenyl)ethynyl]-3-azabicyclo[3.1.0]hexan-3-yl}butanoic acid] | 4 (≈ 8.17 µM) | 16 (≈ 32.7 µM) | 4 (≈ 8.17 µM) |
| C[C@H](O)c1nccn1[C@H](CN)c1cc(-c2ccc(C#CC3CC(C(=O)O)C3)cc2)on1 (stereo partly drawn) [Compound 130, 3-[(4-{3-{(1R)-2-amino-1-(2-[(1S)-1-hydroxyethyl]-1H-imidazol-1-yl}ethyl]-1,2-oxazol-5-yl}phenyl)ethynyl]cyclobutane-1-carboxylate] | 8 (≈ 19 µM) | 32 (≈ 76.1 µM) |  |
| C[C@H](O)c1nccn1[C@H](CN)c1cc(-c2ccc(C#C[C@H]3C[C@H](NCCO)C3)cc2)on1 [Compound 134, (1S)-1-{1-[(1R)-2-amino-1-{5-[4-({trans-3-[(2-hydroxyethyl)amino]cyclobutyl}ethynyl)phenyl]-1,2-oxazol-3-yl}ethyl]-1H-imidazol-2-yl}ethan-1-ol] | 4 (≈ 9.18 µM) | 32 (≈ 73.5 µM) |  |
| C[C@H](O)c1nccn1[C@H](CN)c1cc(-c2ccc(C#C[C@@H]3[C@H]4CN(C[C@@H](C)O)C[C@@H]34)cc2)on1 [Compound 137, (R)-1-((1R,5S,6R)-6-((4-(3-((R)-2-amino-1-(2-((S)-1-hydroxyethyl)-1H-imidazol-1-yl)ethyl)isoxazol-5-yl)phenyl)ethynyl)-3-azabicyclo[3.1.0]hexan-3-yl)propan-2-ol] | 4 (≈ 8.67 µM) | 4 (≈ 8.67 µM) |  |
